Literature values as cited in patent US20240398972A1, “METHODS FOR PRODUCING ANTIBODY-LINKER CONJUGATES” (ARARIS BIOTECH AG, priority 2021, published 2024).

Experiments:
various tumor cell lines = settings: cytostatic effects
[1] = biological target: DNA-dependent RNA polymerase II (Homo sapiens, UniProt P24928); settings: complex amanitin / RNA-polymerase II, not covalently bound

| Compound | IC50 (various tumor cell lines) | Kd [1] |
| --- | --- | --- |
| CC[C@H](C)[C@H](NC(=O)[C@H]1CCCCN1C)C(=O)N(COC(=O)CC(C)C)[C@H](C[C@@H](OC(C)=O)c1nc(C(=O)N[C@@H](Cc2ccc(O)cc2)C[C@H](C)C(=O)O)cs1)C(C)C [Tubulysin A] | picomolar range | – |
| amanitin | – | 3 nM |
